# Measured values: patent USRE46397E1, “Slow release of organic salts of local anesthetics for pain relief” (SVIP5 LLC, priority 2007, dated 2017)
# Read-outs that look alike come from different tables or passages of the source.
# Experiments:
# [1] = cited from earlier work; for Maximum Dose: without epinephrine
# [2] = cited from earlier work; for Onset: in vivo; for Duration: without epinephrine
# male, Sprague-Dawley rat = assay: Radiant heat pain threshold test after introducing particles into a paraspinal pocket; format: in vivo; details: 20 seconds cut-off, treated right side
# Description: To test the local anesthetic efficacy and duration of effect induced by bupivacaine palmitate particles, a treatment and control side in a male, Sprague-Dawley rat (250-300 g) was employed. The animal was anesthetized with isoflurane inhalation (2.5-3%), whereupon the back was partly shaved. A 16 g needle was introduced deep to the shaved skin on the left mid paraspinal back and moved side to side to clear a small (1.0 cm diameter) pocket. A similar procedure was performed on the right side. The needle was then used to introduce test local anesthetic bupivacaine palmitate particles into the pocket on the right side.
# The rat was awakened and placed in a Decapicone for restraint. As restraint itself can produce endogenous analgesic effects, the animal was allowed to rest quietly in the cone for 15 min prior to any testing. Radiant heat from a focused projection bulb with area of approximately 0.5 cm^2 was then directed to the test areas to assess the pain threshold several times on each side. The light was applied until the rat attempted to move within the restraint cone, at which time the light heat stimulus was turned off. The light heat stimulus was never allowed to exceed a 20 seconds interval in order to avoid permanent damage to the skin or undue discomfort.
# The post-procedural results at 15 min, 1 and 2 days are represented in average number of seconds before movement: […]
Structure (SMILES),Maximum Dose (with Epinephrine) [1],Maximum Dose [1],Onset [2],Duration (with Epinephrine) [2],Duration [2],"average number of seconds before movement (male, Sprague-Dawley rat; Day 0 (15 min post-procedure), radiant heat)","average number of seconds before movement (male, Sprague-Dawley rat; Day 1, radiant heat)","average number of seconds before movement (male, Sprague-Dawley rat; Day 2, radiant heat)",Maximum Dose ([1]; total in 24 hrs)
CCCN(CC)C(CC)C(=O)Nc1c(C)cccc1C (stereo not shown) [Etidocaine],(4 mg/kg),2.5 mg/kg,Rapid,(8 h),4 h,–,–,–,–
CCCNC(C)C(=O)Nc1ccccc1C (stereo not shown) [Prilocaine],(7.5 mg/kg),5 mg/kg,Medium,(360 min),1.5 h,–,–,–,–
CCCN1CCCC[C@H]1C(=O)Nc1c(C)cccc1C [Ropivacaine],–,2 to 3 mg/kg,Medium,(6 h),3 h,–,–,–,–
CCCCN1CCCCC1C(=O)Nc1c(C)cccc1C (stereo not shown) [Bupivacaine],(3 mg/kg),2.5 mg/kg,Slow,(8 h),4 h,>20 s,16 s,7.6 s,–
CCN(CC)CCOC(=O)c1ccc(N)cc1Cl [Chloroprocaine],(15 mg/kg),10 mg/kg,Rapid,(90 min),0.5 h,–,–,–,–
CCCCNc1ccc(C(=O)OCCN(C)C)cc1 [Tetracaine],(2.5 mg/kg),1.5 mg/kg,Slow,(10 h),3 h,–,–,–,–
CCN(CC)CCOC(=O)c1ccc(N)cc1 [Procaine],(10 mg/kg),8 mg/kg,Slow,(90 min),0.75 h,–,–,–,–
Cc1cccc(C)c1NC(=O)C1CCCCN1C (stereo not shown) [Mepivacaine],(7 mg/kg),5 mg/kg,Rapid,(360 min),3 h,–,–,–,–
"CCN(CC)CC(=O)Nc1c(C)cccc1C [Lidocaine, 2-(diethylamino)-N-(2,6-dimethylphenyl)-acetamide]",(7 mg/kg),4.5 mg/kg,Rapid,(240 min),2 h,–,–,–,–
CCCCN1CCCC[C@H]1C(=O)Nc1c(C)cccc1C [Levobupivacaine],–,2.0 mg/kg,Medium,(8-12 h),4 to 6 h,–,–,–,400 mg in 24 hrs
